Test results taken from paper PMC5059851, “Inhibition of Hedgehog-dependent tumors and cancer stem cells by a newly identified naturally occurring chemotype” (Cell Death & Disease, 2016).

Tests used:
human Smo WT = biological target: T1, human Smo WT (Homo sapiens, UniProt Q99835); assay: Bodipy-Cyclopamine (BC) binding assay, HEK293T cells transfected with human Smo WT; settings: BC (5 nM) displacement, transiently transfected 293T cells
T1 construct: Myc-DDK; expressed in transfected cells; host or cells: HEK293T
T1 sequence (Q99835 28-787): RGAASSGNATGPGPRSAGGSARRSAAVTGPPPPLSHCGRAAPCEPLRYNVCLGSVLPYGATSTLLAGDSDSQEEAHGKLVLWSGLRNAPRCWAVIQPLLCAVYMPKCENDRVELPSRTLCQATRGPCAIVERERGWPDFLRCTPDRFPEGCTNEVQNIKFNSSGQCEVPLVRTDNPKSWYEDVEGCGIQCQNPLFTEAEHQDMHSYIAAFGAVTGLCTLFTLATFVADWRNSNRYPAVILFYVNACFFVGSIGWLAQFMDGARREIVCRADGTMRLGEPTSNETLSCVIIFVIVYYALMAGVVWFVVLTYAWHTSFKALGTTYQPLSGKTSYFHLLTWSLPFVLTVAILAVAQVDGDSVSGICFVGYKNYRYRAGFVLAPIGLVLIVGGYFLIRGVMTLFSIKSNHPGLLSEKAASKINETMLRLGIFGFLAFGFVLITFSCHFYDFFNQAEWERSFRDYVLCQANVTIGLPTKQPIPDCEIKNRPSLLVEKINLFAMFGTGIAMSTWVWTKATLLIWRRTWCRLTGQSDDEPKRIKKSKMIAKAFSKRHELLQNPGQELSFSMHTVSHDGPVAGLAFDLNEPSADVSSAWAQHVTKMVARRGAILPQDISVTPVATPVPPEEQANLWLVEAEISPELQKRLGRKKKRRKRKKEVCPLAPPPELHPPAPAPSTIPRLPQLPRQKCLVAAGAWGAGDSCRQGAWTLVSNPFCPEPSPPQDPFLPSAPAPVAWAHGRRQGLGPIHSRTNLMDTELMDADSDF
Method: Cells were washed in PBS supplemented with 0.5% fetal bovine serum, fixed in 4% paraformaldehyde in phosphate-buffered saline (PBS) for 10 min, and incubated for 2 h at 37 °C both in the same medium supplemented with Bodipy-Cyclopamine (5 nM) and the studied compounds. The cells were permeabilized with Triton X100 (Sigma) 0.2%. Dako Fluorescent mounting (Dako, Carpinteria, CA, USA) was used as mounting medium and Hoechst reagent for staining of the cell nuclei. Bodipy (green) and Hoechst (blue) signals were analyzed in three to four representative fields per coverslip (× 20 magnification, 1000 cells/field). Data were expressed as percentage of BC incorporation observed with BC alone.[95]

[1] = system: Hh target genes (Gli1 and others) in Ptch1^−/− MEFs; assay: qRT-PCR of endogenous Hh target genes in Ptch1−/− MEFs; assay type: cell-based, mouse; settings: 5 μM, 48 h
Description: For this reason, we focused further studies only on 12. To investigate the inhibitory properties of 12 on Hh pathway, we analyzed endogenous Hh target gene activation in genetically defined Ptch1^−/− mouse embryonic fibroblasts (Ptch1^−/− MEFs) (Figure 2a). In these cells, constitutive activation of the Hh pathway is the consequence of the loss of repressive receptor Ptch1 gene, thus determining high expression levels of Hh target.
Figure 2 Compound 12 inhibits Hh signaling without affecting AP1/Jun and WNT/β-Catenin pathways. (a) The graphs show the Hh target genes expression levels in Ptch1^−/− MEFs treated for 48 h with 12 or DMSO as control. mRNA levels were determined by quantitative real-time PCR (qRT-PCR) normalized to endogenous control (β2-microglobulin and HPRT). Pfkfb3 gene was used as negative control. *P<0.05 versus CTR. […]
(§1) Total RNA was isolated with Trizol (Invitrogen/Life Technologies, Carlsbad, CA, USA) and reverse transcribed with SensiFAST cDNA Synthesis Kit (Bioline Reagents Limited, London, UK). Quantitative real-time PCR (Q-PCR) analysis of Gli1, Gli2, Ptch1, Bmp2, Pfkfb3, CycD1, CycD2, Pcna, Oct4, Nanog, β-2 microglobulin, β-actin and HPRT mRNA expression was performed on each cDNA sample using the VIIA7 Real Time PCR System employing Assay-on-Demand Reagents (Life Technologies). […]

[2] = system: primary MB cells from Ptch1^+/− mice; assay: Trypan blue growth count of primary MB cells from Ptch1+/− mice; assay type: cell-based, mouse; settings: ex vivo cultures from Ptch1^+/− mice MBs
Method: (§2) Cell proliferation was evaluated by BrdU detection (Roche, Welwyn Garden City, UK). Briefly, after the BrdU pulse (24 h for GCPs) cells were fixed with 4% paraformaldehyde and permeabilized with 0.2% Triton X-100, and BrdU detection was performed according to the manufacturer's instructions. Nuclei were counterstained with Hoechst reagent. At least 500 nuclei were counted in triplicate, and the number of BrdU-positive nuclei was recorded. To determine the growth rate of viable cells, a trypan blue count was performed after a treatment period of 24–48–72 h with studied compound.

Gli1 mRNA = Gli1 mRNA (qRT-PCR) in primary MB cells from Ptch1+/− mice; assay type: cell-based, mouse; settings: ex vivo cultures from Ptch1^+/− mice MBs
Method: (§3) Total RNA was isolated with Trizol (Invitrogen/Life Technologies, Carlsbad, CA, USA) and reverse transcribed with SensiFAST cDNA Synthesis Kit (Bioline Reagents Limited, London, UK). Quantitative real-time PCR (Q-PCR) analysis of Gli1, Gli2, Ptch1, Bmp2, Pfkfb3, CycD1, CycD2, Pcna, Oct4, Nanog, β-2 microglobulin, β-actin and HPRT mRNA expression was performed on each cDNA sample using the VIIA7 Real Time PCR System employing Assay-on-Demand Reagents (Life Technologies).

[3] = system: Hh pathway readouts, stemness markers and growth genes in MB stem-like cells; assay: qRT-PCR of Hh, proliferation and stemness targets in MB stem-like cells; assay type: cell-based, mouse; settings: 48 h
Method: Figure 5 Compound 12 inhibition of Hh-dependent MB tumor cell growth. […] (a and b) After the indicated times, a trypan blue count was performed to determine the growth rate of viable cells. (c) Gli1 mRNA expression levels were determined by qRT-PCR normalized to endogenous control (β2-microglobulin and HPRT). (d–f) Compound 12 inhibits MB-SCs self-renewal. (d) Suspension of single MB-SCs isolated from Ptch1^+/− mice were cultured in stem cell medium to allow the formation of primary neurospheres. Primary neurospheres were dissociated and treated with increasing concentrations of compound 12, Cyclopamine or DMSO only. After 7 days of treatment, the number of secondary neurospheres derived from a known number of single cells was counted. The self-renewal MB-SCs' capability is expressed as percentage of neurosphere-forming cells. […]
as §1

[4] = system: human medulloblastoma DAOY cells; assay: Trypan blue growth count of DAOY cells; assay type: cell-based; settings: versus Cyclopamine, Vismodegib, LDE-225
Method: (§4) After the indicated times, a trypan blue count was performed to determine the growth rate. […] Results were normalized to endogenous control (β-actin and HPRT).
as §2

[5] = system: human prostate carcinoma epithelial 22Rv1 cells; assay: Trypan blue growth count of 22Rv1 cells; assay type: cell-based; settings: versus Cyclopamine, Vismodegib, LDE-225
Method: as §4, §2

[6] = system: Hh target genes in SuFu^−/− MEFs; assay: qRT-PCR of endogenous Hh target genes in SuFu−/− MEFs; assay type: cell-based, mouse; settings: 48 h
Method: as §3

`COc1ccc(C=CC(=O)c2cc(OC)c(OC)cc2OC)cc1OC` [Compound 12, 3-(3,4-dimethoxy-phenyl)-1-(2,4,5-trimethoxy-phenyl)-2-propen-1-one] was tested, and the IC50 (human Smo WT) was 24.5 µM, the “mRNA levels of endogenous Hh target genes, including Gli1” value [1] was “significantly reduced” and the “proliferation of primary MB cells” value [2] was “significant inhibition of the proliferation”. The “Gli1 mRNA levels in primary MB cells” value (Gli1 mRNA) was “decrease of Gli1 mRNA levels”, the “Hh pathway activity in MB stem-like cells (Gli1, Gli2, Ptch1, Nanog, Oct4, cyclins D1 and D2, Pcna mRNAs)” value [3] was “reduced Hh pathway activity” and the “inhibition of DAOY cell proliferation” value [4] was “higher activity than other Smo antagonists”. For the same compound, the “inhibition of 22Rv1 cell proliferation” value [5] was “higher activity than other Smo antagonists” and the “expression of endogenous Hh target genes in SuFu^−/− MEFs” value [6] was “suppressed the expression of endogenous Hh target genes”.
